The results in this text go back to PubChem BioAssay AID1259407 (Chemical Carcinogenesis Research Information System (CCRIS), 2018).

The test system of this data set is CCRIS mutagenicity, Ames/micronucleus/aberration tests. Kind of data set: CCRIS mutagenicity studies.
[1] abbreviates: Test System: AMES SALMONELLA TYPHIMURIUM, Strain/Indicator: TA100, Metabolic Activation: NONE, Method: STANDARD PLATE.
Where [2] appears, read: Test System: AMES SALMONELLA TYPHIMURIUM, Strain/Indicator: TA1535, Metabolic Activation: NONE, Method: STANDARD PLATE.
Setting [3] is: Test System: AMES SALMONELLA TYPHIMURIUM, Strain/Indicator: TA97A, Metabolic Activation: NONE, Method: STANDARD PLATE.
The mark [4] stands for this setting: Test System: AMES SALMONELLA TYPHIMURIUM, Strain/Indicator: TA97A, Metabolic Activation: PLANT, HOMOGENATE, S-14, Method: STANDARD PLATE.
Setting [5] is: Test System: AMES SALMONELLA TYPHIMURIUM, Strain/Indicator: TA97A, Metabolic Activation: S-9, Method: STANDARD PLATE.
Where [6] appears, read: Test System: AMES SALMONELLA TYPHIMURIUM, Strain/Indicator: TA98, Metabolic Activation: NONE, Method: STANDARD PLATE.
The mark [7] stands for this setting: Test System: AMES SALMONELLA TYPHIMURIUM, Strain/Indicator: TA98, Metabolic Activation: PLANT, HOMOGENATE, S-14, Method: STANDARD PLATE.
[8] abbreviates: Test System: AMES SALMONELLA TYPHIMURIUM, Strain/Indicator: TA98, Metabolic Activation: S-9, Method: STANDARD PLATE.
[9] abbreviates: Test System: AMES SALMONELLA TYPHIMURIUM, Strain/Indicator: TA100, Metabolic Activation: PLANT, HOMOGENATE, S-14, Method: STANDARD PLATE.
Where [10] appears, read: Test System: AMES SALMONELLA TYPHIMURIUM, Strain/Indicator: TA100, Metabolic Activation: S-9, Method: STANDARD PLATE.
The mark [11] stands for this setting: Test System: AMES SALMONELLA TYPHIMURIUM, Strain/Indicator: TA1535, Metabolic Activation: PLANT, HOMOGENATE, S-14, Method: STANDARD PLATE.
[12] abbreviates: Test System: AMES SALMONELLA TYPHIMURIUM, Strain/Indicator: TA1535, Metabolic Activation: S-9, Method: STANDARD PLATE.
Setting [13] is: Test System: AMES SALMONELLA TYPHIMURIUM, Strain/Indicator: TA100, Metabolic Activation: NONE, Method: PREINCUBATION

The source made the active and inactive calls. How the calls were made is not given here.

As to `CNC(=O)ON(C(C)=O)C(=O)NC`, the mutagenic call reads like this: (Test System: AMES SALMONELLA TYPHIMURIUM, Strain/Indicator: TA98, Metabolic Activation: RAT, LIVER, S-9, Method: STANDARD PLATE) “active; positive”; under setting [1], “inactive; negative”.

Consider `CCCCCCN(N=O)/C(N)=N/[N+](=O)[O-]`, for which the mutagenic call under setting [2] is “active; positive”.

Turning to `CCSCCSP(=S)(OC)OC`, the mutagenic call is, setting by setting: under setting [3], “inactive; negative”; under setting [4], “inactive; negative”; under setting [5], “inactive; negative”; under setting [6], “inactive; negative”; under setting [7], “inactive; negative”; under setting [8], “inactive; negative”. Also, the mutagenic call is “inactive; negative” under setting [1]; “inactive; negative” under setting [9]; “inactive; negative” under setting [10]; “inactive; negative” under setting [11]; “inactive; negative” under setting [12]; “active; positive” (Test System: AMES SALMONELLA TYPHIMURIUM, Strain/Indicator: TA1535, Metabolic Activation: S-9 MIX, Method: STANDARD PLATE).

As to `CC(=O)Nc1cc2c(cc1Cl)-c1ccccc1C2`, the mutagenic call (Test System: AMES SALMONELLA TYPHIMURIUM, Strain/Indicator: TA98, Metabolic Activation: RAT, LIVER, S-9, AROCLOR 1254, Method: STANDARD PLATE) is “active; positive”.

For `C/C=C(\C)CCl`, the mutagenic call is, setting by setting: (Test System: AMES SALMONELLA TYPHIMURIUM, Strain/Indicator: TA100, Metabolic Activation: NONE, Method: LIQUID SUSPENSION) “active; positive”; (Test System: AMES SALMONELLA TYPHIMURIUM, Strain/Indicator: TA100, Metabolic Activation: RAT, LIVER, S-9, Method: LIQUID SUSPENSION) “active; positive”.

Turning to `Cc1ccc(C#N)cc1`, the mutagenic call is “inactive; negative” (Test System: AMES SALMONELLA TYPHIMURIUM, Strain/Indicator: TA97, Metabolic Activation: HAMSTER, LIVER, S-9, AROCLOR 1254 (10%), Method: PREINCUBATION); “inactive; negative” (Test System: AMES SALMONELLA TYPHIMURIUM, Strain/Indicator: TA97, Metabolic Activation: HAMSTER, LIVER, S-9, AROCLOR 1254 (30%), Method: PREINCUBATION); “inactive; negative” (Test System: AMES SALMONELLA TYPHIMURIUM, Strain/Indicator: TA97, Metabolic Activation: NONE, Method: PREINCUBATION); “inactive; negative” (Test System: AMES SALMONELLA TYPHIMURIUM, Strain/Indicator: TA97, Metabolic Activation: RAT, LIVER, S-9, AROCLOR 1254 (10%), Method: PREINCUBATION); “inactive; negative” (Test System: AMES SALMONELLA TYPHIMURIUM, Strain/Indicator: TA97, Metabolic Activation: RAT, LIVER, S-9, AROCLOR 1254 (30%), Method: PREINCUBATION); “inactive; negative” (Test System: AMES SALMONELLA TYPHIMURIUM, Strain/Indicator: TA98, Metabolic Activation: HAMSTER, LIVER, S-9, AROCLOR 1254 (10%), Method: PREINCUBATION). Also, the mutagenic call (Test System: AMES SALMONELLA TYPHIMURIUM, Strain/Indicator: TA98, Metabolic Activation: HAMSTER, LIVER, S-9, AROCLOR 1254 (30%), Method: PREINCUBATION) is “inactive; negative”; the mutagenic call (Test System: AMES SALMONELLA TYPHIMURIUM, Strain/Indicator: TA98, Metabolic Activation: NONE, Method: PREINCUBATION) is “inactive; negative”; the mutagenic call (Test System: AMES SALMONELLA TYPHIMURIUM, Strain/Indicator: TA98, Metabolic Activation: RAT, LIVER, S-9, AROCLOR 1254 (10%), Method: PREINCUBATION) is “inactive; negative”; the mutagenic call (Test System: AMES SALMONELLA TYPHIMURIUM, Strain/Indicator: TA98, Metabolic Activation: RAT, LIVER, S-9, AROCLOR 1254 (30%), Method: PREINCUBATION) is “inactive; negative”; the mutagenic call (Test System: AMES SALMONELLA TYPHIMURIUM, Strain/Indicator: TA100, Metabolic Activation: HAMSTER, LIVER, S-9, AROCLOR 1254 (10%), Method: PREINCUBATION) was “inactive; negative”; the mutagenic call (Test System: AMES SALMONELLA TYPHIMURIUM, Strain/Indicator: TA100, Metabolic Activation: HAMSTER, LIVER, S-9, AROCLOR 1254 (30%), Method: PREINCUBATION) was “inactive; negative”. Further, the mutagenic call is “inactive; negative” under setting [13]; “inactive; negative” (Test System: AMES SALMONELLA TYPHIMURIUM, Strain/Indicator: TA100, Metabolic Activation: RAT, LIVER, S-9, AROCLOR 1254 (10%), Method: PREINCUBATION); “inactive; negative” (Test System: AMES SALMONELLA TYPHIMURIUM, Strain/Indicator: TA100, Metabolic Activation: RAT, LIVER, S-9, AROCLOR 1254 (30%), Method: PREINCUBATION); “inactive; negative” (Test System: AMES SALMONELLA TYPHIMURIUM, Strain/Indicator: TA1535, Metabolic Activation: HAMSTER, LIVER, S-9, AROCLOR 1254 (10%), Method: PREINCUBATION); “inactive; negative” (Test System: AMES SALMONELLA TYPHIMURIUM, Strain/Indicator: TA1535, Metabolic Activation: HAMSTER, LIVER, S-9, AROCLOR 1254 (30%), Method: PREINCUBATION); “inactive; negative” (Test System: AMES SALMONELLA TYPHIMURIUM, Strain/Indicator: TA1535, Metabolic Activation: NONE, Method: PREINCUBATION). Besides, the mutagenic call is, setting by setting: (Test System: AMES SALMONELLA TYPHIMURIUM, Strain/Indicator: TA1535, Metabolic Activation: RAT, LIVER, S-9, AROCLOR 1254 (10%), Method: PREINCUBATION) “inactive; negative”; (Test System: AMES SALMONELLA TYPHIMURIUM, Strain/Indicator: TA1535, Metabolic Activation: RAT, LIVER, S-9, AROCLOR 1254 (30%), Method: PREINCUBATION) “inactive; negative”.

`C=C1C(=O)O[C@@H]2CCN3CC=C(COC(=O)[C@](C)(O)[C@H](C)[C@H]1C)[C@H]23`: the mutagenic call (Test System: AMES SALMONELLA TYPHIMURIUM, Strain/Indicator: TA100, Metabolic Activation: RAT, LIVER, S-9, SODIUM PHENOBARBITAL AND BETA-NAPHTHOFLAVONE, Method: PREINCUBATION) is “inactive; negative”.

For the molecule `CCN(CC)C(=O)/C(Cl)=C(\C)OP(=O)(OC)OC`, the mutagenic call runs as follows: (End Point: IN VITRO CHROMOSOMAL ABERRATIONS, Test System: HUMAN PERIPHERAL BLOOD LYMPHOCYTES, Metabolic Activation: NONE) “active; positive (structural changes)”; (Test System: AMES SALMONELLA TYPHIMURIUM, Strain/Indicator: G46, Metabolic Activation: HOST-MEDIATED, Method: STANDARD PLATE) “active; positive”; under setting [3], “inactive; negative”; under setting [4], “inactive; negative”; under setting [5], “inactive; negative”; under setting [6], “inactive; negative”. For the same molecule, the mutagenic call reads like this: under setting [7], “inactive; negative”; under setting [8], “inactive; negative”; under setting [13], “active; positive”; under setting [9], “inactive; negative”; under setting [10], “inactive; negative”; (Test System: AMES SALMONELLA TYPHIMURIUM, Strain/Indicator: TA102, Metabolic Activation: NONE, Method: STANDARD PLATE) “inactive; negative”. For the same molecule, the mutagenic call runs as follows: (Test System: AMES SALMONELLA TYPHIMURIUM, Strain/Indicator: TA104, Metabolic Activation: NONE, Method: STANDARD PLATE) “inactive; negative”; under setting [2], “inactive; negative”; under setting [11], “inactive; negative”; under setting [12], “inactive; negative”.
